From article PMC12390684 (Viruses, 2025)

Target: IN-GCN2 interaction (6xHis-IN / GST-GCN2) (UniProt P04585+Q9P2K8)
Assay: biochemical
Format: binding, HIV-1 IN; human GCN2
Conditions: screen; for IN-GCN2 interaction (%): single dose 100 µM, single replicate, residual AlphaLISA signal normalized to DMSO control

Sequence of IN-GCN2 interaction (6xHis-IN / GST-GCN2) (Q9P2K8 192-1024, other chains not shown): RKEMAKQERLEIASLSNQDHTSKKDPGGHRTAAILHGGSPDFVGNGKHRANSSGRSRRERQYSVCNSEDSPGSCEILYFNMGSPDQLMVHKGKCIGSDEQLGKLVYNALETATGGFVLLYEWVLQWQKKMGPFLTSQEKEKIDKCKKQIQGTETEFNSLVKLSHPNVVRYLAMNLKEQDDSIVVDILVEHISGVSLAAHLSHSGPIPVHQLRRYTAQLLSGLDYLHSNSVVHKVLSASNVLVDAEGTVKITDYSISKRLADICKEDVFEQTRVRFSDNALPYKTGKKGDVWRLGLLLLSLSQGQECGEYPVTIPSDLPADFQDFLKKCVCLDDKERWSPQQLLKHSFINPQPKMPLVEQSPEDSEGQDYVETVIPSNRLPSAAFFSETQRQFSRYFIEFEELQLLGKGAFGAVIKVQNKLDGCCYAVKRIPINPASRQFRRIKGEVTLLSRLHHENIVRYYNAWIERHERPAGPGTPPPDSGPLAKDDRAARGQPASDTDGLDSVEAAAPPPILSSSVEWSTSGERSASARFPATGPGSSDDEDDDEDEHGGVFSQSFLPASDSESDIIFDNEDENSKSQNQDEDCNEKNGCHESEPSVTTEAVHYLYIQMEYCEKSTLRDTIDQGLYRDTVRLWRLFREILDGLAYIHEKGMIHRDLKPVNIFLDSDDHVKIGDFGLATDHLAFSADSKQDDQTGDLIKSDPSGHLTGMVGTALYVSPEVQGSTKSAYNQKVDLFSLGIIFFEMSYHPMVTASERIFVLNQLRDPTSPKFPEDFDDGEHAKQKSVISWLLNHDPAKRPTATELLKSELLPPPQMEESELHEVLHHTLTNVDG

O=[N+]([O-])[O-].c1ccc2c(c1)[nH]c1c2cc[n+]2cc3c(cc12)CCCC3 [NSC21728]
IN-GCN2 interaction (%): 107.16%

C=C1C(=O)O[C@H]2C[C@@]3(C)O[C@@H]3CC/C(C)=C/[C@@H](OC(C)=O)[C@H]12 [NSC22070]
IN-GCN2 interaction (%): 135.82%

O=c1oc2cc(O)ccc2c2oc3cc(O)ccc3c12 [NSC22842]
IN-GCN2 interaction (%): 123.61%

CCC(C)c1cnc(CC(C)C)c(=O)n1O (centres unmarked) [NSC22939]
IN-GCN2 interaction (%): 88.97%

O=c1ccn([C@H]2C[C@H](O)[C@@H](CO)O2)c(=O)[nH]1 [NSC23615]
IN-GCN2 interaction (%): 82.13%

COC1=CC(=O)OC(CCc2ccc3c(c2)OCO3)C1 (centres unmarked) [NSC23878]
IN-GCN2 interaction (%): 70.38%

COc1cc([C@@H]2c3cc4c(c(O)c3C[C@H]3COC(=O)[C@@H]32)OCO4)cc(OC)c1OC [NSC24819]
IN-GCN2 interaction (%): 89.45%

C/C(=C\CC1=C(O)c2ccccc2C(=O)C1=O)CO [NSC24872]
IN-GCN2 interaction (%): 132.67%

O=C1C[C@@H]2OCC=C3C[N+]4([O-])CC[C@]56c7ccccc7N1[C@H]5[C@H]2[C@H]3C[C@@H]64 (some centres unmarked) [NSC24951]
IN-GCN2 interaction (%): 106.44%

COC1[C@H](O)[C@@H](O)C(O)[C@H](O)[C@H]1O (some centres unmarked) [NSC26254]
IN-GCN2 interaction (%): 90.47%

C=C(C)[C@H]1Cc2c(ccc3c2O[C@@H]2COc4cc(OC)c(OC)cc4[C@@H]2C3=O)O1 [NSC26258]
IN-GCN2 interaction (%): 55.12%

O=P1(N(CCCl)CCCl)NCCCO1 (centres unmarked) [NSC26271]
IN-GCN2 interaction (%): 117.66%

CC1(C)CCC2=C(O1)c1ccccc1C(=O)C2=O [NSC26326]
IN-GCN2 interaction (%): 107.59%

CC1(C)CCC2=C(O1)C(=O)c1ccccc1C2=O [NSC26327]
IN-GCN2 interaction (%): 99.02%

NC(=O)NCCC[C@H](N)C(=O)O [NSC27425]
IN-GCN2 interaction (%): 90.90%

O=C([O-])c1nc(=O)[nH]c(=O)[nH]1.[K+] [NSC28841]
IN-GCN2 interaction (%): 85.56%

COC(=O)C1C2CC3c4[nH]c5cc(OC)ccc5c4CCN3CC2CC(OC(=O)CCc2cc(OC)c(OC)c(OC)c2)C1OC (centres unmarked) [NSC29854]
IN-GCN2 interaction (%): 63.08%

O=C(O)/C(O)=C(/O)C(=O)O [NSC30238]
IN-GCN2 interaction (%): 100.21%

COc1c(O)cc2oc3cc(O)c(CC=C(C)C)c(O)c3c(=O)c2c1CC=C(C)C [NSC30552]
IN-GCN2 interaction (%): 60.59%

C/C=C(/C)C(=O)O[C@H]1CCN2CC=C(COC(=O)[C@@](O)([C@H](C)OC)C(C)(C)O)[C@H]12 [NSC30625]
IN-GCN2 interaction (%): 106.60%

COc1ccc([C@@H]2CC(=O)c3c(O)cc(O[C@@H]4O[C@H](CO[C@@H]5O[C@@H](C)[C@H](O)[C@@H](O)[C@H]5O)[C@@H](O)[C@H](O)[C@H]4O)cc3O2)cc1O [NSC31048]
IN-GCN2 interaction (%): 142.54%

O=C1c2ccccc2C(=O)c2c1cc(O)c(O)c2O [NSC31754]
IN-GCN2 interaction (%): 87.55%

CCCCCc1cc(O)cc2c1Oc1cc(O)cc(C(=O)CCCC)c1C(=O)O2 [NSC31867]
IN-GCN2 interaction (%): 101.08%

CN1CCc2cc3c(cc2[C@H]1[C@@H]1OC(=O)c2c1ccc1c2OCO1)OCO3 [NSC32192]
IN-GCN2 interaction (%): 122.62%

CC(=O)O[C@@]1(C)C[C@@H]([C@H](O)CC2CC(=O)NC(=O)C2)C(=O)[C@@H](C)C1 [NSC32743]
IN-GCN2 interaction (%): 79.33%

CC[C@H]1CN2CCc3cc(OC)c(OC)cc3[C@@H]2C[C@@H]1C[C@H]1NCCc2cc(O)c(OC)cc21 [NSC32944]
IN-GCN2 interaction (%): 81.67%

COc1ccc2c(c1O)-c1c(OC)c(OC)cc3c1[C@H](C2)N(C)CC3 [NSC32979]
IN-GCN2 interaction (%): 119.47%

COc1cc(/C=C/C(=O)CC(=O)/C=C/c2ccc(O)c(OC)c2)ccc1O [NSC32982]
IN-GCN2 interaction (%): 15.01%

COc1cc2c(cc1OC)C(=O)Cc1ccc3c(c1CN(C)CC2)OCO3 [NSC32984]
IN-GCN2 interaction (%): 91.01%

COc1cc2c(c(OC)c1OC)-c1ccc(OC)c(=O)cc1[C@@H](NC(=O)c1ccccc1)CC2 [NSC33410]
IN-GCN2 interaction (%): 67.25%

COC(=O)CC[C@@H](C)[C@H]1CC[C@@]2(C)[C@@H]3C(=O)C[C@H]4C(C)(C)[C@@H](OC(C)=O)CC[C@]4(C)[C@H]3C(=O)C[C@]12C [NSC34202]
IN-GCN2 interaction (%): 97.47%

[O-][N+]12CCCCC1CCCC2CO (centres unmarked) [NSC34552]
IN-GCN2 interaction (%): 80.42%

COc1c2c(c3c(c1OC)c(=O)c1ccccc1n3C)OCO2 [NSC34758]
IN-GCN2 interaction (%): 105.30%

COc1ccc(CC2=NCCc3cc(OC)c(OC)cc32)cc1OC.O=C(O)C(=O)O [NSC35550]
IN-GCN2 interaction (%): 110.36%

CC1CCC2C(C)C3C(CC4C5CC=C6CC(OC7OC(CO)C(O)C(OC8OC(CO)C(O)C(O)C8O)C7OC7OC(C)C(O)C(O)C7O)CCC6(C)C5CCC43C)N2C1.Cl (centres unmarked) [NSC35611]
IN-GCN2 interaction (%): 109.39%

O=c1c(O)cccc2cc(O)c(O)c(O)c12 [NSC35676]
IN-GCN2 interaction (%): 61.12%

COc1c2c(cc(O)c1C(C)=O)OC(C)(C)C=C2 [NSC36294]
IN-GCN2 interaction (%): 109.95%

COc1ccc2c(c1OC)CN1CCc3cc4c(cc3C1C2)OCO4 (centres unmarked) [NSC36351]
effect on IN-GCN2 interaction in the screen, in words (100 µM, inactive = within 10% of the DMSO control): inactive
IN-GCN2 interaction (%): 108.61%

O=C1c2cc(O)c(O)cc2OC(c2ccc(O)c(O)c2)C1O (centres unmarked) [NSC36398]
IN-GCN2 interaction (%): 108.22%

COc1cc([C@@H]2c3cc4c(cc3[C@H](O)[C@H]3COC(=O)[C@@H]23)OCO4)cc(OC)c1OC [NSC36407]
IN-GCN2 interaction (%): 109.04%

C=C1C(=O)OC2CC1C(OC(C)=O)C/C(C)=C/CC/C(C)=C\CCC2(C)O (centres unmarked) [NSC36437]
IN-GCN2 interaction (%) (listed as 36437): 73.91%

CC1(C)O[C@H]2CC(=O)OC[C@]23[C@H]2CC[C@@]4(C)[C@H](c5ccoc5)OC(=O)[C@H]5O[C@]54[C@]2(C)C(=O)C[C@@H]13 [NSC36508]
IN-GCN2 interaction (%): 112.07%

C[C@@H]1C[C@H]2OC(=O)[C@@]3(C)CCC[C@@](C)([C@@H]23)[C@@]1(O)CCc1ccoc1 [NSC36693]
IN-GCN2 interaction (%): 92.00%

CCOC(=O)CCCCCCCCCCCCC1C=CCC1 (centres unmarked) [NSC38010]
IN-GCN2 interaction (%): 104.59%

CO[C@@H]1[C@H](O)C[C@@H](O[C@H]2[C@@H](C)O[C@@H](Oc3cc(O)c4c(O)c5c(cc4c3)C[C@@H]([C@H](OC)C(=O)[C@@H](O)[C@@H](C)O)[C@H](O[C@H]3C[C@@H](O[C@H]4C[C@@H](O[C@H]6C[C@](C)(O)[C@@H](OC(=O)C(C)C)[C@H](C)O6)[C@H](O)[C@@H](C)O4)[C@H](O)[C@@H](C)O3)C5=O)C[C@H]2OC(C)=O)O[C@@H]1C [NSC38270]
IN-GCN2 interaction (%): 113.18%

CC1=C2[C@H]3OC(=O)[C@@H](C)[C@@H]3CC[C@@]2(C)C=C/C1=N\O [NSC42038]
IN-GCN2 interaction (%): 112.40%

CC(C)c1ccc(O)c(=O)cc1 [NSC43338]
IN-GCN2 interaction (%) (listed as 43338): 100.42%

CC(C)=CCc1ccc(O)c(=O)cc1C(C)C [NSC43339]
IN-GCN2 interaction (%): 101.87%

CN1[C@@H]2CC[C@H]1CC(O)C2 (some centres unmarked) [NSC43871]
IN-GCN2 interaction (%): 99.50%

O=P(O)(O)OC1OC(CO)C(O)C(O)C1O (centres unmarked) [NSC44138]
IN-GCN2 interaction (%): 105.48%

O=C1C(O)=C(c2ccccc2)C(=O)C(O)=C1c1ccccc1 [NSC44175]
IN-GCN2 interaction (%): 117.13%

COC1=C(N)C(=O)c2nc(-c3nc(C(=O)O)c(C)c(-c4ccc(OC)c(OC)c4O)c3N)ccc2C1=O [NSC45383]
IN-GCN2 interaction (%): 84.72%

COC(=O)c1nc(-c2ccc3c(n2)C(=O)C(N)=C(OC)C3=O)c(N)c(-c2ccc(OC)c(OC)c2O)c1C [NSC45384]
IN-GCN2 interaction (%): 82.84%

COc1c2occc2cc2ccc(=O)oc12 [NSC45923]
IN-GCN2 interaction (%): 121.17%

CC(C)C[C@H](N)C(=O)O [NSC46709]
IN-GCN2 interaction (%): 84.16%

C=C1C(=O)OC2CC1C(OC(C)=O)C/C(C)=C/CC/C(C)=C\CCC2(C)O (centres unmarked) [NSC46728]
IN-GCN2 interaction (%) (listed as 46728): 93.27%

COc1cc2c(cc1OC)C(O)C(O)(CO)C(C(=O)O)C2c1cc(OC)c(OC)c(OC)c1 (centres unmarked) [NSC50131]
IN-GCN2 interaction (%): 78.06%

COc1cc2c(cc1OC)C(c1cc(OC)c(OC)c(OC)c1)C1(O)C(=O)OCC1(O)C2 (centres unmarked) [NSC50132]
IN-GCN2 interaction (%): 86.33%

O=C1CC(c2ccccc2)Oc2ccccc21 (centres unmarked) [NSC50393]
IN-GCN2 interaction (%): 103.95%

CO[C@@H]1[C@@H](O[C@@H]2O[C@H](C)[C@@H](O[C@H]3C[C@@](C)(O)[C@@H](OC(=O)CC(C)C)[C@H](C)O3)[C@H](N(C)C)[C@H]2O)[C@@H](CC=O)C[C@@H](C)C(=O)/C=C/[C@@H]2O[C@H]2C[C@@H](C)OC(=O)C[C@H]1OC(C)=O [NSC51001]
IN-GCN2 interaction (%): 99.20%

COc1cc(O)c(C(=O)/C=C/c2ccccc2)c(OC)c1 [NSC51351]
IN-GCN2 interaction (%): 51.53%

CO[C@@]12[C@H](COC(N)=O)C3=C(C(=O)C(C)=C(N)C3=O)N1C[C@H]1[C@@H]2N1C (some centres unmarked) [NSC56410]
IN-GCN2 interaction (%): 73.33%

CCN1C[C@]2(COC)[C@H](O)C[C@H](OC)[C@@]34[C@@H]5C[C@@]6(O)[C@H](OC(=O)c7ccccc7)[C@@H]5[C@@](OC(C)=O)([C@@H]([C@H](OC)[C@H]23)[C@@H]14)[C@@H](O)[C@@H]6OC [NSC56464]
IN-GCN2 interaction (%): 148.00%

C1CCC(NC2CCCCC2)CC1.COC1C(OC(=O)/C=C/C=C/C=C/C=C/C(=O)O)CCC2(CO2)C1C1(C)OC1CC=C(C)C (centres unmarked) [NSC58368]
IN-GCN2 interaction (%): 95.05%

O=C(O)C1(O)C[C@@H](O)C(O)[C@H](O)C1 (some centres unmarked) [NSC59258]
IN-GCN2 interaction (%) (listed as 59258): 71.78%

CSC[S@@+]([O-])CC(CO)NC(=O)/C=C/c1c(C)[nH]c(=O)[nH]c1=O (some centres unmarked) [NSC59729]
IN-GCN2 interaction (%): 102.04%

COc1cc2c3c(c4ccc(OC)c(OC)c4c2cc1OC)CN1CCC[C@@H]1C3 [NSC60387]
IN-GCN2 interaction (%): 110.26%

C[N+]1(C)C2CC(OC(=O)C(CO)c3ccccc3)CC1C1OC12 (centres unmarked) [NSC61809]
IN-GCN2 interaction (%): 93.88%

COc1ccc(-c2c(C)c(C(=O)O)nc(-c3ccc4c(O)c(OC)c5c(c4n3)=NC(C)(C)N=5)c2N)c(O)c1OC [NSC62709]
IN-GCN2 interaction (%): 123.77%

CNC[C@H](O)c1ccc(O)c(O)c1 [NSC62786]
IN-GCN2 interaction (%): 108.20%
